Experimental findings from patent publication US8975265B2, “Substituted imidazo[1,2-a]pyrimidines and —pyridines” (Bayer Intellectual Property GmbH, priority 2010, dated 2015) are described below.

Read-outs that look alike come from different tables or passages of the source.

The test system of one assay is SK-Mel-28 (melanoma). Description: Tumor cell proliferation assay, SK-Mel-28. It is filed as cell-based. The settings on record: Homo sapiens, 72h drug exposure, read-out: median IC50. How it is done:
(§1) Biological Assay 4.0: Tumor Cell Proliferation Assays
(§2) Compounds were tested in a cell-based assay that measures the capacity of the compounds to inhibit tumour cell proliferation following a 72h drug exposure. Cell viability is determined using CellTiter-Glow® (CTG, Promega, cat# G7571/2/3). The CellTiter-Glo® Luminescent Cell Viability Assay is a homogeneous method to determine the number of viable cells in culture. Detection is based on using the luciferase reaction to measure the amount of ATP from viable cells. The amount of ATP in cells correlates with cell viability. Within minutes after a loss of membrane integrity, cells lose the ability to synthesize ATP, and endogenous ATPases destroy any remaining ATP; thus the levels of ATP fall precipitously.
(§3) Cells were plated at 3000-5000 cells/well (depending on the cell lines) in 90 μL growth medium on MTPs (Corning; #3603, black plate, clear flat bottom). For each cell line assayed, cells were plated onto a separate plate for determination of […] at t=0 hour and t=72 hour time points. Following overnight incubation at 37° C., chemiluminescence values for the t=0 samples were determined after adding 10 μl medium and 100 μl CTG solution according to manufacture protocol. […] Chemiluminescence values for the t=72 hour samples were determined. […]

The test system of another assay is A375 (melanoma). Description: Tumor cell proliferation assay, A375. Type of assay: cell-based. The note with it: Homo sapiens, A-375, 72h drug exposure, read-out: median IC50. How it is done: as §1, §2, §3
The next assay deals with U87 (brain). Kind of assay: Tumor cell proliferation assay, U87. It is filed as cell-based. The note with it: 72h drug exposure, read-out: median IC50. How it is done: as §1, §2, §3
For another assay, the system named is A2058 (melanoma). Kind of assay: Tumor cell proliferation assay, A2058. It is filed as cell-based. The note with it: Homo sapiens, 72h drug exposure, read-out: median IC50. How it is done: as §1, §2, §3
The next assay concerns MeWo (melanoma). Description: Tumor cell proliferation assay, MeWo. Type of assay: cell-based. The note with it: Homo sapiens, 72h drug exposure, read-out: median IC50. Here is the method:
as §1, §2, §3

For assay [1], the system named is KPL-4 breast cancer cell line. Kind of assay: Tumor cell proliferation assay (CellTiter-Glo, 72 h), KPL-4. It is filed as cell-based. The note with it: KPL4, 72h drug exposure. In a few lines: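 KPL-4 cells were treated with compound for 72 h at 37°C. Viability was measured as ATP by CellTiter-Glo luminescence, with a separate t=0 plate read after overnight attachment. A reference compound was run as standard.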

The next assay concerns UACC-257 (melanoma). Description: Tumor cell proliferation assay, UACC-257. It is filed as cell-based. The note with it: Homo sapiens, 72h drug exposure, read-out: median IC50. Here is the method: as §1, §2, §3
Another assay relates to HMCB (melanoma). Description: Tumor cell proliferation assay, HMCB. Type of assay: cell-based. The settings on record: Homo sapiens, 72h drug exposure, read-out: median IC50. How it is done: as §1, §2, §3
The test system of another assay is H1993 (NSCLC). Kind of assay: Tumor cell proliferation assay, H1993. Type of assay: cell-based. The note with it: Homo sapiens, NCI-H1993, 72h drug exposure, read-out: median IC50. How it is done:
as §1, §2, §3

A further assay deals with UACC-62 (melanoma). Kind of assay: Tumor cell proliferation assay, UACC-62. Type of assay: cell-based. The note with it: Homo sapiens, 72h drug exposure, read-out: median IC50. Here is the method:
as §1, §2, §3

Another assay has as its system HT-144 (melanoma). Description: Tumor cell proliferation assay, HT-144. It is filed as cell-based. The note with it: Homo sapiens, 72h drug exposure, read-out: median IC50. How it is done:
as §1, §2, §3

The next assay concerns Malme-3M (melanoma). Description: Tumor cell proliferation assay, Malme-3M. The note with it: Homo sapiens, 72h drug exposure, read-out: median IC50. It is filed as cell-based. How it is done: as §1, §2, §3
Assay [2] relates to p-AKT S473 in PC3 human prostate tumours. Description: In vivo xenograft mechanism of action study. Further details: species or system athymic nude mice. The note with it: Mus musculus, po, PC3 tumours in nude mice, once 50 mg/kg p.o. An excerpt:
In Vivo Xenograft Mechanism of Action Study
To this extent PC3 human prostate tumours were xenografted onto athymic nude mice. PC3 tumour cells were cultivated according to ATCC protocols in recommended media contained 10% FCS and harvested for transplantation in a subconfluent (70%) state. 3×10^6 tumour cells suspended in 50% Matrigel were subcutaneously implantated into the inguinal region of male mice. Tumours were allowed to grow to the predetermined size of 60-80 mm^2. When the tumours were approximately in size, the animals were randomized to treatment and control groups (groups size: 9 animals) and treatment was started. Animals were treated once with 50 mg/kg compound or vehicle per oral administration (p.o.) carried out via a gastric tube. Treatment of each animal was based on individual body weight. At 2, 5 and 24 hours post treatment 3 animals each were sacrificed and the PC3 tumours excised. Tumour samples of approximately 5×5×5 mm were lysed on ice in MSD lysis buffer in the presence of protease and phosphatase inhibitors using Tissue Lyzer (Qiagen, Germany). The levels of p-AKT S473 in extracts from tumour tissue were analysed in an ELISA based assay. This assay is based on the “Akt Duplex” of the MULTI-SPOT® Assay System (Fa. Meso Scale Discovery, Cat# N41100B-1) following manufacturers instructions. Each assay used 20 μg of protein extract and measured total AKT and p-AKT content simultaneously in one well. All measurements where at least done in duplicates and confirmed by independent repetition.
Values for P-AKT are expressed as percentage of P-AKT level compared to total-AKT content of the extracts. Vehicle treated tumours were analyzed to determine the basal level of P-AKT in this model and used as a normalization control to determine the % P-AKT relative to vehicle levels.

Assay [3] deals with p-AKT1/2/3-S473 in KPL4 breast tumour cell line. Kind of assay: Cellular p-AKT1/2/3-S473 assay. Type of assay: cell-based. The note with it: KPL4 breast tumour cell line, 2 hours treatment; read-out: pAKT-S743 median IC50. In a few lines:
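KPL4 cells (PIK3CA H1047R, HER2 0/E, hormone independent) were seeded at 60–80% confluency, cultured overnight, then exposed to compound for 2 h at 37 °C. pAKT-S473 and total AKT measured together by MSD Akt Duplex on 20 µg extract; pAKT expressed as % of total AKT, at least duplicate with independent repeats.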

The subject of the next assay is LnCAP. Kind of assay: Tumor cell proliferation assay (CellTiter-Glo, 72 h), LnCAP. It is filed as cell-based. The note with it: Homo sapiens, 72h drug exposure. How it is done: as §2
Cells were plated at 3000-5000 cells/well (depending on the cell lines) in 90 μL growth medium on MTPs (Corning; #3603, black plate, clear flat bottom). For each cell line assayed, cells were plated onto a separate plate for determination of […] at t=0 hour and t=72 hour time points. Following overnight incubation at 37° C., chemiluminescence values for the t=0 samples were determined after adding 10 μl medium and 100 μl CTG solution according to manufacture protocol. Plates for the t=72 hour time points were treated with compounds diluted into growth medium at ten times final concentration added in 10 μL to the cell culture plate. Cells were then incubated for 72 hours at 37° C. Chemiluminescence values for the t=72 hour samples were determined. […] Experiments were controlled using a reference compound as standard.

In assay [4] the target is His-tagged human recombinant kinase full-length Akt1 (Homo sapiens (Human), UniProt P31749). Kind of assay: Akt1 kinase assay (TR-FRET). It is filed as biochemical. The note with it: 10 μM ATP; read-out: Akt1, median IC50. In short, it runs like this: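 Full-length His-tagged Akt1 (about 0.05 ng/μl final) preincubated 15 min at 22 °C with compound in 50 mM TRIS/HCl pH 7.5, 5 mM MgCl2, 1 mM DTT, 0.02% Triton X-100; biotinylated peptide substrate. Phosphopeptide detected by TR-FRET (Eu-chelate antibody to streptavidin-XL665) after 1 h at 22 °C.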
Chain of His-tagged human recombinant kinase full-length Akt1 (P31749 whole entry): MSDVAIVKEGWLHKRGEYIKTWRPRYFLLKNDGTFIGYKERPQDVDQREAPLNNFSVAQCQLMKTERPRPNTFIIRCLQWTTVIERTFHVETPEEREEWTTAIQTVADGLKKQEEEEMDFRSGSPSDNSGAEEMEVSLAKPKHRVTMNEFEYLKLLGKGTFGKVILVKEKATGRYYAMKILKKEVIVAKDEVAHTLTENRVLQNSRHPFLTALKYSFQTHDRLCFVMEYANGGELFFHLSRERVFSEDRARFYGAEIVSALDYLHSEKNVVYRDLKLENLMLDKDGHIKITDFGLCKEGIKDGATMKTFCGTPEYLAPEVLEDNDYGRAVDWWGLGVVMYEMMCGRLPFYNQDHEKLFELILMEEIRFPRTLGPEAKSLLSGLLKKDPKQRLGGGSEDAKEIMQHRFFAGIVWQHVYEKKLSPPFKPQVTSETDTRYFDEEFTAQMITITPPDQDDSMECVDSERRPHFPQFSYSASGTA
(In TR-FRET formats the signal depends on donor and acceptor labels being close together.)

The subject of assay [5] is p-4E-BP1-T70 in KPL4 breast tumour cell line. Description: Cellular p-4E-BP1-T70 assay. Type of assay: cell-based. The note with it: 2 hours treatment, read-out: P4EBP1-T70 median IC50. In short, it runs like this:
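KPL4 cells (PIK3CA H1047R, hormone independent) seeded at 60-80% confluency, incubated overnight, then exposed to compounds for 2 h at 37 °C. Lysates assayed for phospho-4E-BP1 T70 by AlphaScreen SureFire, in at least duplicate with independent repetition.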

In a further assay the test system is MCF7. Kind of assay: Tumor cell proliferation assay (CellTiter-Glo, 72 h), MCF7. Type of assay: cell-based. The settings on record: Homo sapiens, 72h drug exposure. In short, it runs like this: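 Cells seeded at 3000–5000/well and incubated overnight, then exposed to compound for 72 h at 37 °C. Viability measured by CellTiter-Glo ATP luminescence, with a separate plate read at t=0.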

The mark [6] stands for this setting: 2 hours post treatment, read-out: P-AKT % relative to control at 2 hours.
[7] abbreviates: 5 hours post treatment, read-out: P-AKT % relative to control at 5 hours.

The IC50 is the midpoint of a concentration-inhibition curve. For `NC1(c2ccc(-c3nc4nc(-c5ccccc5)ccn4c3-c3ccccc3)cc2)CCC1` [Example 1-3], the IC50 was 2000 nM in the assay with SK-Mel-28 (melanoma); 2.2 µM in the assay on A375 (melanoma); 4.9 µM in the assay on U87 (brain); 2200 nM in the assay with A2058 (melanoma); 2 µM with MeWo (melanoma); 1700 nM in [1]. For the same molecule, the 50% inhibitory concentration (IC50) in the assay with UACC-257 (melanoma) turned out to be 1100 nM; in the assay on HMCB (melanoma), 2.6 µM; in the assay with H1993 (NSCLC) it was 600 nM; in the assay on UACC-62 (melanoma) it was 2.2 µM; with HT-144 (melanoma), 2300 nM; with Malme-3M (melanoma), 1900 nM.

For the molecule `COc1cc(C(N)=O)cn2c(-c3ccccc3)c(-c3ccc(C4(N)CCC4)cc3)nc12` [Example 1-13], the response vs control in vivo at 50 mg/kg is 95.7% in [2] (setting [6]) and 152% in [2] (setting [7]). Moreover, the IC50 in assay [3] was 35 nM; in assay [1], 900 nM; with LnCAP, 1100 nM; in assay [4], 24 nM; in [5] it was 1020 nM; in the assay with MCF7 it was 400 nM.

As to `COc1ccn2c(-c3ccccc3)c(-c3ccc(C4(N)CCC4)cc3)nc2n1` [Example 2-0, 1-[4-(7-methoxy-3-phenyl-imidazo[1,2-a]pyrimidin-2-yl)-phenyl]-cyclobutylamine], the IC50 was found to be 3700 nM in the assay on SK-Mel-28 (melanoma); 8.6 µM in the assay on A375 (melanoma); 10 µM in the assay on U87 (brain); 2100 nM in the assay on A2058 (melanoma); 30 nM in [3]; 5.2 µM with MeWo (melanoma). The IC50 stood at 800 nM in assay [1]; 2000 nM in the assay with UACC-257 (melanoma); 8.5 µM in the assay with HMCB (melanoma); 500 nM in the assay on H1993 (NSCLC); 142 nM in [4]; 8.9 µM with UACC-62 (melanoma). Besides, the IC50 in the assay on HT-144 (melanoma) was 2100 nM; in the assay with Malme-3M (melanoma) it was 2400 nM.

For `NC1(c2ccc(-c3nc4cc(-c5cccnc5)ccn4c3-c3ccccc3)cc2)CCC1` [Example 2-110], the response vs control in vivo at 50 mg/kg was determined as 10.2% in assay [2] (setting [6]) and 16.4% in [2] (setting [7]). In addition, the IC50 in assay [3] was found to be 41 nM; in assay [1] it was 1700 nM; in the assay on LnCAP it was 500 nM; in [4] it was 129 nM; in the assay on MCF7, 700 nM.

For `NC(=O)c1cc(Cl)c2nc(-c3ccc(C4(N)CCC4)cc3)c(-c3ccccc3)n2c1` [Example 6-1, 2-[4-(1-amino-cyclobutyl)-phenyl]-8-chloro-3-phenyl-imidazo[1,2-a]pyridine-6-carboxylic acid amide], the response vs control in vivo at 50 mg/kg was found to be 7.7% in assay [2] (setting [6]) and 7.5% in assay [2] (setting [7]). Further, the IC50 in assay [3] came to 5 nM; in assay [1] it was 300 nM; in the assay with LnCAP, 400 nM; in [4], 12 nM; in the assay with MCF7 it was 300 nM.
